Measurements from PubChem BioAssay (NCI).
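All cell lines were grown in 96-well plates and treated with compound for 48 hours. GI50 marks 50% less growth. Definition used: TGI = concentration required for complete inhibition of growth.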

How the values were obtained:
Assay in all cases: growth of human tumour cells (NCI), 48 h
U251 CNS = tested on: U251 CNS
HCC-2998 colon = tested on: HCC-2998 colon
LOX IMVI melanoma = tested on: LOX IMVI melanoma
SW-620 colon = tested on: SW-620 colon
SK-MEL-5 melanoma = tested on: SK-MEL-5 melanoma
MDA-MB-231 breast = tested on: MDA-MB-231 breast
NCI/ADR-RES ovarian = tested on: NCI/ADR-RES ovarian
HCT-116 colon = tested on: HCT-116 colon
KM20L2 colon = tested on: KM20L2 colon
HOP-18 NSCLC = tested on: HOP-18 NSCLC

Structure (SMILES) | GI50 (U251 CNS) [µM] | TGI (U251 CNS) [µM] | GI50 (HCC-2998 colon) [µM] | TGI (HCC-2998 colon) [µM] | GI50 (LOX IMVI melanoma) [µM] | TGI (LOX IMVI melanoma) [µM] | GI50 (SW-620 colon) [µM] | TGI (SW-620 colon) [µM] | GI50 (SK-MEL-5 melanoma) [µM] | TGI (SK-MEL-5 melanoma) [µM] | GI50 (MDA-MB-231 breast) [µM] | TGI (MDA-MB-231 breast) [µM] | GI50 (NCI/ADR-RES ovarian) [µM] | TGI (NCI/ADR-RES ovarian) [µM] | GI50 (HCT-116 colon) [µM] | TGI (HCT-116 colon) [µM] | TGI (KM20L2 colon) [µM] | TGI (HOP-18 NSCLC) [µM]
COc1ccc(-c2csc(NC(=O)c3cc(O)c(O)c(O)c3)n2)cc1 | 4.09 | > 33.3 | 17.2 | > 33.3 | 6.57 | > 33.3 | 5.69 | > 33.3 | 6.04 | > 33.3 | 5.18 | > 33.3 | 11.2 | > 33.3 | 6.69 | > 33.3 | – | –
CN(C)CCCn1c2nc(=O)[nH]c(=O)c-2nc2cc(Cl)c(Cl)cc21 | 3.08 | 10.5 | 12.5 | 27.9 | 2.37 | 7.36 | 2.58 | 11.7 | 1.65 | 3.12 | 3.88 | 14.9 | 7.9 | > 100 | 0.418 | 6.71 | – | –
COC1=C(Br)C(=O)C2=C(C1=O)C1C3=C(C(=O)C=CC3=O)C2c2ccccc21 (stereo not given) | 4.31 | 22.2 | 0.565 | 19.5 | 4.91 | 26 | 4.56 | > 100 | 16 | 48.9 | 8.15 | 66.1 | 18.8 | 61.5 | 5.91 | > 100 | – | –
Cn1c(=O)c(Oc2ccccc2)cc2cnc(NC3CCOCC3)nc21 | > 25 | > 25 | > 25 | > 25 | > 25 | > 25 | > 25 | > 25 | > 25 | > 25 | > 25 | > 25 | > 25 | > 25 | > 25 | > 25 | – | –
O=c1c2cccnc2ncn1CCN1CCCC1 | – | > 100 | – | > 100 | – | > 100 | – | > 100 | – | > 100 | – | – | – | – | – | > 100 | > 100 | –
O=c1c2ccccc2nc(-c2cccc(Cl)c2)n1NCC1(O)OCC(O)C(O)C1O (stereo not given) | – | > 100 | – | – | – | > 100 | – | > 100 | – | – | – | – | – | – | – | > 100 | > 100 | –
NC1=Nc2cc(OCCCN3Cc4ccccc4C3)c(OCC3CC3)cc2C12CCCC2 | 1.8 | 3.88 | 1.62 | 3.08 | 1.51 | 2.91 | 2.07 | 4.88 | 1.67 | 3.04 | 1.62 | 3.65 | 2.91 | 12 | 1.61 | 3.49 | – | –
Cc1cc(=O)oc2cc(OS(C)(=O)=O)ccc12 | – | > 100 | – | > 100 | – | > 100 | – | > 100 | – | > 100 | – | > 100 | – | > 100 | – | > 100 | – | –
N#Cc1c(N)nc(N2CCOCC2)c(C#N)c1-c1ccccc1Cl | 50 | > 100 | 49.8 | > 100 | 56 | > 100 | > 100 | > 100 | 32.4 | > 100 | 31.2 | > 100 | 40.2 | > 100 | 74.7 | > 100 | – | –
N#C/C(=C\c1ccc(Br)cc1)n1nnc2ccccc21 | 1.1 | 2.67 | 1.51 | 3.34 | 0.319 | 1.19 | 0.318 | 1.57 | 0.999 | 2.32 | 1.33 | 6.17 | 0.323 | 11 | 0.518 | 1.93 | – | –
S=c1nc(N2CCCCC2)ss1 | – | 38 | – | 30 | – | – | – | 72.4 | – | 30.5 | – | – | – | – | – | 42.4 | > 100 | 88.4
COc1cc(OC)c(C(=O)/C=C/c2cccc(OC(C)=O)c2)cc1CC=C(C)C | 6.91 | 14.7 | 8.87 | 16.2 | 6.29 | 13.1 | 7.02 | 18.5 | 6.47 | 13.3 | 13.1 | > 50 | 7.62 | 31.3 | 3 | 9.78 | – | –
NC1CCC(N[C@@H]2C[C@H]2c2ccccc2)CC1 (stereo not given in full) | > 100 | > 100 | > 100 | > 100 | 69.6 | > 100 | > 100 | > 100 | > 100 | > 100 | 23 | > 100 | > 100 | > 100 | > 100 | > 100 | – | –
Fc1ccc2[nH]cc(SSc3c[nH]c4ccc(F)cc34)c2c1 | 3.82 | 28 | 6.34 | 23.3 | 3.18 | 17.4 | 8.22 | 26 | 5.13 | 18.3 | 4.17 | 26.8 | 7.1 | > 100 | 3.98 | > 100 | – | –
COc1cc(/C=C2\C(=O)Nc3cccc(Cl)c32)cc(OC)c1OC | 41 | > 100 | > 100 | > 100 | > 100 | > 100 | > 100 | > 100 | > 100 | > 100 | 33.3 | > 100 | > 100 | > 100 | > 100 | > 100 | – | –
CCC(C(=O)c1ccccc1)C(CCCC(=O)Nc1c(C)cccc1C)N=O (stereo not given) | – | > 100 | – | > 100 | – | – | – | > 100 | – | > 100 | – | – | – | – | – | > 100 | > 100 | > 100
